Data taken from ChEMBL document CHEMBL4715697, “Synthesis and biological activity of benzamide DNA minor groove binders” (2016).

Key:
Format in all cases: functional
HL-60(TB) = assay: Growth inhibition of human HL-60(TB) cells assessed as cell growth at 0.01 uM incubated for 48 hrs by sulforhodamine B assay relative to control; settings: read-out: Activity
RPMI-8226 = assay: Growth inhibition of human RPMI-8226 cells assessed as cell growth at 0.01 uM incubated for 48 hrs by sulforhodamine B assay relative to control; settings: read-out: Activity
SNB-75 [1] = assay: Growth inhibition of human SNB-75 cells assessed as cell growth at 0.01 uM incubated for 48 hrs by sulforhodamine B assay relative to control; settings: read-out: Activity
LOX IMVI = assay: Growth inhibition of human LOX IMVI cells assessed as cell growth at 0.01 uM incubated for 48 hrs by sulforhodamine B assay relative to control; settings: read-out: Activity
M14 = assay: Growth inhibition of human M14 cells assessed as cell growth at 0.01 uM incubated for 48 hrs by sulforhodamine B assay relative to control; settings: read-out: Activity
OVCAR-3 [2] = assay: Growth inhibition of human OVCAR-3 cells assessed as cell growth at 0.01 uM incubated for 48 hrs by sulforhodamine B assay relative to control; settings: read-out: Activity
786-0 = assay: Growth inhibition of human 786-0 cells assessed as cell growth at 0.01 uM incubated for 48 hrs by sulforhodamine B assay relative to control; settings: read-out: Activity
A498 = assay: Growth inhibition of human A498 cells assessed as cell growth at 0.01 uM incubated for 48 hrs by sulforhodamine B assay relative to control; settings: read-out: Activity
ACHN = assay: Growth inhibition of human ACHN cells assessed as cell growth at 0.01 uM incubated for 48 hrs by sulforhodamine B assay relative to control; settings: read-out: Activity
RXF 393 [3] = assay: Growth inhibition of human RXF 393 cells assessed as cell growth at 0.01 uM incubated for 48 hrs by sulforhodamine B assay relative to control; settings: read-out: Activity
K562 = assay: Growth inhibition of human K562 cells assessed as cell growth at 0.1 uM incubated for 48 hrs by sulforhodamine B assay relative to control; settings: read-out: Activity
NCI-H460 [4] = assay: Growth inhibition of human NCI-H460 cells assessed as cell growth at 0.1 uM incubated for 48 hrs by sulforhodamine B assay relative to control; settings: read-out: Activity
SNB-75 [5] = assay: Growth inhibition of human SNB-75 cells assessed as cell growth at 0.1 uM incubated for 48 hrs by sulforhodamine B assay relative to control; settings: read-out: Activity
SK-MEL-28 = assay: Growth inhibition of human SK-MEL-28 cells assessed as cell growth at 0.1 uM incubated for 48 hrs by sulforhodamine B assay relative to control; settings: read-out: Activity
UACC-62 [6] = assay: Growth inhibition of human UACC-62 cells assessed as cell growth at 0.1 uM incubated for 48 hrs by sulforhodamine B assay relative to control; settings: read-out: Activity
DU-145 = assay: Growth inhibition of human DU-145 cells assessed as cell growth at 0.1 uM incubated for 48 hrs by sulforhodamine B assay relative to control; settings: read-out: Activity
A549 = assay: Growth inhibition of human A549/ATCC cells assessed as cell growth at 1 uM incubated for 48 hrs by sulforhodamine B assay relative to control; settings: read-out: Activity
UACC-62 [7] = assay: Growth inhibition of human UACC-62 cells assessed as cell growth at 1 uM incubated for 48 hrs by sulforhodamine B assay relative to control; settings: read-out: Activity
OVCAR-8 [8] = assay: Growth inhibition of human OVCAR-8 cells assessed as cell growth at 1 uM incubated for 48 hrs by sulforhodamine B assay relative to control; settings: read-out: Activity
UO-31 = assay: Growth inhibition of human UO-31 cells assessed as cell growth at 1 uM incubated for 48 hrs by sulforhodamine B assay relative to control; settings: read-out: Activity
PC-3 = assay: Growth inhibition of human PC-3 cells assessed as cell growth at 1 uM incubated for 48 hrs by sulforhodamine B assay relative to control; settings: read-out: Activity
NCI-H460 [9] = assay: Growth inhibition of human NCI-H460 cells assessed as cell growth at 100 uM incubated for 48 hrs by sulforhodamine B assay relative to control; settings: read-out: Activity
SK-MEL-5 = assay: Growth inhibition of human SK-MEL-5 cells assessed as cell growth at 100 uM incubated for 48 hrs by sulforhodamine B assay relative to control; settings: read-out: Activity
UACC-257 = assay: Growth inhibition of human UACC-257 cells assessed as cell growth at 100 uM incubated for 48 hrs by sulforhodamine B assay relative to control; settings: read-out: Activity
OVCAR-8 [10] = assay: Growth inhibition of human OVCAR-8 cells assessed as cell growth at 100 uM incubated for 48 hrs by sulforhodamine B assay relative to control; settings: read-out: Activity
TK-10 = assay: Growth inhibition of human TK-10 cells assessed as cell growth at 100 uM incubated for 48 hrs by sulforhodamine B assay relative to control; settings: read-out: Activity
MCF7 = assay: Growth inhibition of human MCF7 cells assessed as cell growth at 100 uM incubated for 48 hrs by sulforhodamine B assay relative to control; settings: read-out: Activity
Hs-578T [11] = assay: Growth inhibition of human Hs-578T cells assessed as cell growth at 100 uM incubated for 48 hrs by sulforhodamine B assay relative to control; settings: read-out: Activity
SR = assay: Growth inhibition of human SR cells incubated for 48 hrs by sulforhodamine B assay
NCI-H522 = assay: Growth inhibition of human NCI-H522 cells incubated for 48 hrs by sulforhodamine B assay
OVCAR-3 [12] = assay: Growth inhibition of human OVCAR-3 cells incubated for 48 hrs by sulforhodamine B assay
RXF 393 [13] = assay: Growth inhibition of human RXF 393 cells incubated for 48 hrs by sulforhodamine B assay
Hs-578T [14] = assay: Growth inhibition of human Hs-578T cells incubated for 48 hrs by sulforhodamine B assay
BT-549 = assay: Growth inhibition of human BT-549 cells incubated for 48 hrs by sulforhodamine B assay
T47D = assay: Growth inhibition of human T47D cells incubated for 48 hrs by sulforhodamine B assay
[15] = read-out: LC50 (the source's name)
[16] = read-out: pLC50 (the source's name) (converted)

CC(=O)Nc1cc(CO[Si](C)(C)C(C)(C)C)cc(NC(=O)c2ccc(C(=O)Nc3cccc(NC(=O)CCCN(C)C)c3)cc2)c1
growth at 0.01 µM (HL-60(TB)): 102%
growth at 0.01 µM (RPMI-8226): 95%
growth at 0.01 µM (SNB-75 [1]): 93%
growth at 0.01 µM (LOX IMVI): 101%
growth at 0.01 µM (M14): 97%
growth at 0.01 µM (OVCAR-3 [2]): 100%
growth at 0.01 µM (786-0): 97%
growth at 0.01 µM (A498): 70%
growth at 0.01 µM (ACHN): 100%
growth at 0.01 µM (RXF 393 [3]): 101%
growth at 0.1 µM (K562): 96%
growth at 0.1 µM (NCI-H460 [4]): 99%
growth at 0.1 µM (SNB-75 [5]): 83%
growth at 0.1 µM (SK-MEL-28): 95%
growth at 0.1 µM (UACC-62 [6]): 94%
growth at 0.1 µM (DU-145): 100%
growth at 1 µM (A549): 100%
growth at 1 µM (UACC-62 [7]): 99%
growth at 1 µM (OVCAR-8 [8]): 97%
growth at 1 µM (UO-31): 105%
growth at 1 µM (PC-3): 105%
growth at 100 µM (NCI-H460 [9]): 89%
growth at 100 µM (SK-MEL-5): 73%
growth at 100 µM (UACC-257): 81%
growth at 100 µM (OVCAR-8 [10]): 88%
growth at 100 µM (TK-10): 98%
growth at 100 µM (MCF7): 32%
growth at 100 µM (Hs-578T [11]): 89%
GI50 (SR; read-out: GI50): > 75 µM
CC50 (SR; [15]): > 75 µM
TGI (SR; read-out: TGI): > 75 µM
GI50 (SR; read-out: pGI50 (converted)): > 75.9 µM
CC50 (SR; [16]): > 75.9 µM
TGI (SR; read-out: pTGI): > 75.9 µM
GI50 (NCI-H522; read-out: GI50): > 75 µM
CC50 (NCI-H522; [15]): > 75 µM
TGI (NCI-H522; read-out: TGI): > 75 µM
GI50 (NCI-H522; read-out: pGI50 (converted)): > 75.9 µM
CC50 (NCI-H522; [16]): > 75.9 µM
TGI (NCI-H522; read-out: pTGI): > 75.9 µM
GI50 (OVCAR-3 [12]; read-out: GI50): > 75 µM
LC50 (50% lethal concentration) (OVCAR-3 [12]; read-out: LC50): > 75 µM
TGI (OVCAR-3 [12]; read-out: TGI): > 75 µM
GI50 (OVCAR-3 [12]; read-out: pGI50 (converted)): > 75.9 µM
LC50 (50% lethal concentration) (OVCAR-3 [12]; read-out: pLC50 (converted)): > 75.9 µM
TGI (OVCAR-3 [12]; read-out: pTGI): > 75.9 µM
GI50 (RXF 393 [13]; read-out: GI50): > 75 µM
CC50 (RXF 393 [13]; [15]): > 75 µM
TGI (RXF 393 [13]; read-out: TGI): > 75 µM
GI50 (RXF 393 [13]; read-out: pGI50 (converted)): > 75.9 µM
CC50 (RXF 393 [13]; [16]): > 75.9 µM
TGI (RXF 393 [13]; read-out: pTGI): > 75.9 µM
GI50 (Hs-578T [14]; read-out: GI50): > 75 µM
CC50 (Hs-578T [14]; [15]): > 75 µM
TGI (Hs-578T [14]; read-out: TGI): > 75 µM
GI50 (Hs-578T [14]; read-out: pGI50 (converted)): > 75.9 µM
CC50 (Hs-578T [14]; [16]): > 75.9 µM
TGI (Hs-578T [14]; read-out: pTGI): > 75.9 µM
GI50 (BT-549; read-out: GI50): > 75 µM
CC50 (BT-549; [15]): > 75 µM
TGI (BT-549; read-out: TGI): > 75 µM
GI50 (BT-549; read-out: pGI50 (converted)): > 75.9 µM
CC50 (BT-549; [16]): > 75.9 µM
TGI (BT-549; read-out: pTGI): > 75.9 µM
GI50 (T47D; read-out: GI50): > 75 µM
CC50 (T47D; [15]): > 75 µM
TGI (T47D; read-out: TGI): > 75 µM
GI50 (T47D; read-out: pGI50 (converted)): > 75.9 µM
CC50 (T47D; [16]): > 75.9 µM
TGI (T47D; read-out: pTGI): > 75.9 µM
